Measurements as given in PubChem BioAssay AID2060508 (Molecular Pharmacology Branch, DTP, NCI, 2025).

The molecules below were run on 454973-116-R2-J3-PDC spheroids, viability, % test/control (assay: Anticancer human tumor 454973-116-R2-J3-PDC patient-derived pancreatic carcinoma cell line growth inhibition [GQUAD]). Conditions: second compound 0.1 µM; first compound 1 µM; hits give low values; spheroids with HUVEC and MSC.
How it was run: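 Multi-cell-type spheroids of tumor cells with HUVEC and mesenchymal stem cells, treated with drug combinations. Concentrations descend in half-log steps from near clinical Cmax, or from 10 microM where Cmax is unknown; viability read-out.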
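Also: spheroids exposed to compounds for seven days; 100% = DMSO vehicle control viability.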

| Compound | viability, T/C |
| --- | --- |
| C=CC(=O)N1CCN(c2nc(=O)n(-c3c(C)ccnc3C(C)C)c3nc(-c4c(O)cccc4F)c(F)cc23)C(C)C1 (configuration not stated) + CN(C)c1ccc(Nc2c3ccc(NC(=O)CCN4CCCC4)cc3nc3cc(NC(=O)CCN4CCCC4)ccc23)cc1 | 107% |
| CC1COCCN1c1cc(C2(O)CC3CCC(C2)O3)c2cnn(-c3ccn[nH]3)c2n1 (configuration not stated) + CN(C)c1ccc(Nc2c3ccc(NC(=O)CCN4CCCC4)cc3nc3cc(NC(=O)CCN4CCCC4)ccc23)cc1 | 23.4% |
| Cc1cccc(N(C)C(=O)C2C(O)CCN2c2nc(C)cc(C(F)(F)F)c2C#N)c1 (configuration not stated) + CN(C)c1ccc(Nc2c3ccc(NC(=O)CCN4CCCC4)cc3nc3cc(NC(=O)CCN4CCCC4)ccc23)cc1 | 98% |
| O=C(c1cc(Cc2n[nH]c(=O)c3ccccc23)ccc1F)N1CCN(C(=O)C2CC2)CC1 + CN(C)c1ccc(Nc2c3ccc(NC(=O)CCN4CCCC4)cc3nc3cc(NC(=O)CCN4CCCC4)ccc23)cc1 | 93.1% |

Same assay, conditions: second compound 0.1 µM; first compound 3.16 µM; hits give low values; spheroids with HUVEC and MSC

| Compound | viability, T/C |
| --- | --- |
| C=CC(=O)N1CCN(c2nc(=O)n(-c3c(C)ccnc3C(C)C)c3nc(-c4c(O)cccc4F)c(F)cc23)C(C)C1 (configuration not stated) + CN(C)c1ccc(Nc2c3ccc(NC(=O)CCN4CCCC4)cc3nc3cc(NC(=O)CCN4CCCC4)ccc23)cc1 | 102% |
| CC1COCCN1c1cc(C2(O)CC3CCC(C2)O3)c2cnn(-c3ccn[nH]3)c2n1 (configuration not stated) + CN(C)c1ccc(Nc2c3ccc(NC(=O)CCN4CCCC4)cc3nc3cc(NC(=O)CCN4CCCC4)ccc23)cc1 | 22.4% |
| Cc1cccc(N(C)C(=O)C2C(O)CCN2c2nc(C)cc(C(F)(F)F)c2C#N)c1 (configuration not stated) + CN(C)c1ccc(Nc2c3ccc(NC(=O)CCN4CCCC4)cc3nc3cc(NC(=O)CCN4CCCC4)ccc23)cc1 | 92.6% |
| O=C(c1cc(Cc2n[nH]c(=O)c3ccccc23)ccc1F)N1CCN(C(=O)C2CC2)CC1 + CN(C)c1ccc(Nc2c3ccc(NC(=O)CCN4CCCC4)cc3nc3cc(NC(=O)CCN4CCCC4)ccc23)cc1 | 79.6% |

Same assay, conditions: second compound 0.1 µM; first compound 10 µM; hits give low values; spheroids with HUVEC and MSC

| Compound | viability, T/C |
| --- | --- |
| C=CC(=O)N1CCN(c2nc(=O)n(-c3c(C)ccnc3C(C)C)c3nc(-c4c(O)cccc4F)c(F)cc23)C(C)C1 (configuration not stated) + CN(C)c1ccc(Nc2c3ccc(NC(=O)CCN4CCCC4)cc3nc3cc(NC(=O)CCN4CCCC4)ccc23)cc1 | 112% |
| CC1COCCN1c1cc(C2(O)CC3CCC(C2)O3)c2cnn(-c3ccn[nH]3)c2n1 (configuration not stated) + CN(C)c1ccc(Nc2c3ccc(NC(=O)CCN4CCCC4)cc3nc3cc(NC(=O)CCN4CCCC4)ccc23)cc1 | 15% |
| Cc1cccc(N(C)C(=O)C2C(O)CCN2c2nc(C)cc(C(F)(F)F)c2C#N)c1 (configuration not stated) + CN(C)c1ccc(Nc2c3ccc(NC(=O)CCN4CCCC4)cc3nc3cc(NC(=O)CCN4CCCC4)ccc23)cc1 | 105% |
| O=C(c1cc(Cc2n[nH]c(=O)c3ccccc23)ccc1F)N1CCN(C(=O)C2CC2)CC1 + CN(C)c1ccc(Nc2c3ccc(NC(=O)CCN4CCCC4)cc3nc3cc(NC(=O)CCN4CCCC4)ccc23)cc1 | 60.8% |

Same assay, conditions: second compound 0.316 µM; first compound 0.000999 µM; hits give low values; spheroids with HUVEC and MSC

| Compound | viability, T/C |
| --- | --- |
| Cn1ncnc1[C@H]1c2n[nH]c(=O)c3cc(F)cc(c23)N[C@@H]1c1ccc(F)cc1 + CN(C)c1ccc(Nc2c3ccc(NC(=O)CCN4CCCC4)cc3nc3cc(NC(=O)CCN4CCCC4)ccc23)cc1 | 95.2% |

Same assay, conditions: second compound 0.316 µM; first compound 0.00316 µM; hits give low values; spheroids with HUVEC and MSC

| Compound | viability, T/C |
| --- | --- |
| Cn1ncnc1[C@H]1c2n[nH]c(=O)c3cc(F)cc(c23)N[C@@H]1c1ccc(F)cc1 + CN(C)c1ccc(Nc2c3ccc(NC(=O)CCN4CCCC4)cc3nc3cc(NC(=O)CCN4CCCC4)ccc23)cc1 | 97.6% |

Same assay, conditions: second compound 0.316 µM; first compound 0.00999 µM; hits give low values; spheroids with HUVEC and MSC

| Compound | viability, T/C |
| --- | --- |
| Cn1ncnc1[C@H]1c2n[nH]c(=O)c3cc(F)cc(c23)N[C@@H]1c1ccc(F)cc1 + CN(C)c1ccc(Nc2c3ccc(NC(=O)CCN4CCCC4)cc3nc3cc(NC(=O)CCN4CCCC4)ccc23)cc1 | 87.3% |

Same assay, conditions: second compound 0.316 µM; first compound 0.0316 µM; hits give low values; spheroids with HUVEC and MSC

| Compound | viability, T/C |
| --- | --- |
| C=CC(=O)N1CCN(c2nc(=O)n(-c3c(C)ccnc3C(C)C)c3nc(-c4c(O)cccc4F)c(F)cc23)C(C)C1 (configuration not stated) + CN(C)c1ccc(Nc2c3ccc(NC(=O)CCN4CCCC4)cc3nc3cc(NC(=O)CCN4CCCC4)ccc23)cc1 | 107% |
| CC1COCCN1c1cc(C2(O)CC3CCC(C2)O3)c2cnn(-c3ccn[nH]3)c2n1 (configuration not stated) + CN(C)c1ccc(Nc2c3ccc(NC(=O)CCN4CCCC4)cc3nc3cc(NC(=O)CCN4CCCC4)ccc23)cc1 | 99.5% |
| Cc1cccc(N(C)C(=O)C2C(O)CCN2c2nc(C)cc(C(F)(F)F)c2C#N)c1 (configuration not stated) + CN(C)c1ccc(Nc2c3ccc(NC(=O)CCN4CCCC4)cc3nc3cc(NC(=O)CCN4CCCC4)ccc23)cc1 | 102% |
| Cn1ncnc1[C@H]1c2n[nH]c(=O)c3cc(F)cc(c23)N[C@@H]1c1ccc(F)cc1 + CN(C)c1ccc(Nc2c3ccc(NC(=O)CCN4CCCC4)cc3nc3cc(NC(=O)CCN4CCCC4)ccc23)cc1 | 91.7% |
| O=C(c1cc(Cc2n[nH]c(=O)c3ccccc23)ccc1F)N1CCN(C(=O)C2CC2)CC1 + CN(C)c1ccc(Nc2c3ccc(NC(=O)CCN4CCCC4)cc3nc3cc(NC(=O)CCN4CCCC4)ccc23)cc1 | 104% |

Same assay, conditions: second compound 0.316 µM; first compound 0.0999 µM; hits give low values; spheroids with HUVEC and MSC

| Compound | viability, T/C |
| --- | --- |
| Cn1ncnc1[C@H]1c2n[nH]c(=O)c3cc(F)cc(c23)N[C@@H]1c1ccc(F)cc1 + CN(C)c1ccc(Nc2c3ccc(NC(=O)CCN4CCCC4)cc3nc3cc(NC(=O)CCN4CCCC4)ccc23)cc1 | 77.7% |

Same assay, conditions: second compound 0.316 µM; first compound 0.1 µM; hits give low values; spheroids with HUVEC and MSC

| Compound | viability, T/C |
| --- | --- |
| C=CC(=O)N1CCN(c2nc(=O)n(-c3c(C)ccnc3C(C)C)c3nc(-c4c(O)cccc4F)c(F)cc23)C(C)C1 (configuration not stated) + CN(C)c1ccc(Nc2c3ccc(NC(=O)CCN4CCCC4)cc3nc3cc(NC(=O)CCN4CCCC4)ccc23)cc1 | 103% |
| CC1COCCN1c1cc(C2(O)CC3CCC(C2)O3)c2cnn(-c3ccn[nH]3)c2n1 (configuration not stated) + CN(C)c1ccc(Nc2c3ccc(NC(=O)CCN4CCCC4)cc3nc3cc(NC(=O)CCN4CCCC4)ccc23)cc1 | 61.5% |
| Cc1cccc(N(C)C(=O)C2C(O)CCN2c2nc(C)cc(C(F)(F)F)c2C#N)c1 (configuration not stated) + CN(C)c1ccc(Nc2c3ccc(NC(=O)CCN4CCCC4)cc3nc3cc(NC(=O)CCN4CCCC4)ccc23)cc1 | 92.9% |
| O=C(c1cc(Cc2n[nH]c(=O)c3ccccc23)ccc1F)N1CCN(C(=O)C2CC2)CC1 + CN(C)c1ccc(Nc2c3ccc(NC(=O)CCN4CCCC4)cc3nc3cc(NC(=O)CCN4CCCC4)ccc23)cc1 | 91.6% |

Same assay, conditions: second compound 0.316 µM; first compound 0.316 µM; hits give low values; spheroids with HUVEC and MSC

| Compound | viability, T/C |
| --- | --- |
| C=CC(=O)N1CCN(c2nc(=O)n(-c3c(C)ccnc3C(C)C)c3nc(-c4c(O)cccc4F)c(F)cc23)C(C)C1 (configuration not stated) + CN(C)c1ccc(Nc2c3ccc(NC(=O)CCN4CCCC4)cc3nc3cc(NC(=O)CCN4CCCC4)ccc23)cc1 | 103% |
| CC1COCCN1c1cc(C2(O)CC3CCC(C2)O3)c2cnn(-c3ccn[nH]3)c2n1 (configuration not stated) + CN(C)c1ccc(Nc2c3ccc(NC(=O)CCN4CCCC4)cc3nc3cc(NC(=O)CCN4CCCC4)ccc23)cc1 | 30.6% |
